Data taken from PMC8741894 (2022).

Assays:
[1] = system: MN4 (DNA, aptamer) GGCGACAAGGAAAATCCTTCAACGAAGTGGGTCGCC; assay: ITC; settings: 140 mM NaCl, 5 mM KCl, 15 °C
[2] = system: SRE RNA (RNA, hairpin) GGAGGCUCUGGCAGCUUUC; assay: ITC; settings: 140 mM NaCl, 5 mM KCl; 20 mM TRIS pH 7.4, 2.4% DMSO, 15 °C; 20 µM nucleic acid, 0.312 mM titrant
[3] = system: OR7 (DNA, aptamer) CAAGGAAAATCCTTCAACGAAGTGGG; assay: ITC; settings: 140 mM NaCl, 5 mM KCl; 20 mM TRIS pH 7.4, 2.4% DMSO, 15 °C; site 1 of 2
[4] = system: MN19 (DNA, aptamer) GACAAGGAAAATCCTTCAACGAAGTGGGTC; assay: ITC; settings: 140 mM NaCl, 5 mM KCl; 20 mM TRIS pH 7.4, 2.4% DMSO, 15 °C; site 1 of 2
[5] = system: MN4 (DNA, aptamer) GGCGACAAGGAAAATCCTTCAACGAAGTGGGTCGCC; assay: 1H NMR imino titration; settings: sodium phosphate, no added NaCl; 20 mM phosphate pH 7.4, 5 °C; slow exchange, shifts near three-way junction
[6] = system: MN4 (DNA, aptamer) GGCGACAAGGAAAATCCTTCAACGAAGTGGGTCGCC; assay: native mass spectrometry with CID; settings: 300 mM ammonium acetate; pH 6.8; 10 µM aptamer, 100 µM ART; non-covalent
[7] = system: DDD (DNA, duplex) CGCGAATTCGCG/CGCGAATTCGCG; assay: ITC; settings: 140 mM NaCl, 5 mM KCl; 20 mM TRIS pH 7.4, 2.4% DMSO, 15 °C; site 1 of 2
[8] = system: MN19-SITS (DNA, aptamer) GACAAGGAAAATCCTTCAACGAAGTGGGTC; assay: photochrome aptamer switch assay (fluorescence decay); settings: 140 mM NaCl; 20 mM Tris pH 7.4, 3% DMSO, 20 °C; 0-4.2 µM ART
[9] = system: poly-dT (DNA, single strand) TTTTTTTTTTTT; assay: ITC; settings: 140 mM NaCl, 5 mM KCl; 20 mM TRIS pH 7.4, 2.4% DMSO, 15 °C; 20 µM nucleic acid, 0.312 mM titrant
[10] = system: Hexamer (DNA, duplex) CGTACG/CGTACG; assay: ITC; settings: 140 mM NaCl, 5 mM KCl; 20 mM TRIS pH 7.4, 2.4% DMSO, 15 °C; site 1 of 2
[11] = system: Hybrid DNA/RNA (DNA:RNA, duplex) GACACCUGAUUC/GAATCAGGTGTC; assay: ITC; settings: 140 mM NaCl, 5 mM KCl; 20 mM TRIS pH 7.4, 2.4% DMSO, 15 °C; 20 µM nucleic acid, 0.312 mM titrant
[12] = system: TWJ (DNA, junction) CGTGCAGCGGCTTGCCGGCACTTGTGCTTCTGCACG; assay: ITC; settings: 140 mM NaCl, 5 mM KCl; 20 mM TRIS pH 7.4, 2.4% DMSO, 15 °C; site 1 of 2
[13] = system: SS1 (DNA, junction) GGCGACGAGGAAAATCCTTCGACGAAGTAAGTCGCC; assay: ITC; settings: 140 mM NaCl, 5 mM KCl; 20 mM TRIS pH 7.4, 2.4% DMSO, 15 °C; site 1 of 2
[14] = system: MN19 (DNA, aptamer) GACAAGGAAAATCCTTCAACGAAGTGGGTC; assay: UV melting, 260 nm; settings: 137 mM NaCl, 2.7 mM KCl; PBS pH 7.4, 3% acetonitrile; Tm of complex, free MN19 shows no transition
[15] = system: MN4 (DNA, aptamer) GGCGACAAGGAAAATCCTTCAACGAAGTGGGTCGCC; assay: ITC competition; settings: 140 mM NaCl, 5 mM KCl; 20 mM TRIS pH 7.4, 1% DMSO, 15 °C; apparent; ART pre-bound 3:1, competitive binding model

Row | Structure (SMILES) | Kd1 ([1]; 20 mM TRIS pH 7.4, 2.4% DMSO, site 1 of 2) [µM] | binding [2] | Kd1 [3] [µM] | Kd1 [4] [µM] | binding [5] | binding [6] | Kd1 [7] [µM] | binding [8] | binding [9] | Kd1 [10] [µM] | binding [11] | Kd1 [12] [µM] | Kd1 [13] [µM] | Tm [14] [°C] | Kd, app [15] [µM] | binding ([1]; 20 mM TRIS pH 7.4, 1.5% DMSO, 20 µM aptamer, 0.312 mM titrant)
1 | C[C@@H]1CC[C@H]2[C@@H](C)C(=O)O[C@@H]3O[C@@]4(C)CC[C@@H]1[C@]32OO4 | 0.03 ± 0.01 | no | 0.03 ± 0.01 | 0.02 ± 0.01 | yes | yes | 0.10 ± 0.03 | yes | no | 0.007 ± 0.004 | no | 0.06 ± 0.02 | 0.004 ± 0.002 | 34.8 ± 1.1 |  | 
2 | C=C[C@H]1CN2CC[C@H]1C[C@H]2[C@H](O)c1ccnc2ccc(OC)cc12 |  |  |  |  |  |  |  |  |  |  |  |  |  | 36.4 ± 1.2 | 1.1 ± 0.1 | 
3 | C[C@@H]1CC[C@H]2[C@@H](C)C(=O)O[C@@H]3O[C@@]4(C)CC[C@@H]1[C@]32O4 |  |  |  |  |  |  |  |  |  |  |  |  |  |  |  | no
